In patent US20230183678A1, “IN-CELL CONTINUOUS TARGET-GENE EVOLUTION, SCREENING AND SELECTION” (COMMISSARIAT À L'ENERGIE ATOMIQUE ET AUX ENERGIES …, priority 2020, published 2023):

How the values were obtained:
[1] = target: T1, PDZ (Homo sapiens, UniProt P78352); settings: cI-PDZ/rpoA-CRIPT pair; read-out: affinity; cited from earlier work
T1 construct: expressed in transfected cells; host or cells: E. coli BL21(DE3) Star or Acella, plasmid VN419

[2] = target: T2, rpoA-stop (premature stop codon resulting in no fusion peptide) (UniProt P0A7Z4 1-248, limits assumed); test: bacterial two-hybrid coupled to Bxb1 DNA invertase; sequencing of colonies showed no inversion
T2 construct: also called VN376
T2 sequence (P0A7Z4 1-248 limits assumed): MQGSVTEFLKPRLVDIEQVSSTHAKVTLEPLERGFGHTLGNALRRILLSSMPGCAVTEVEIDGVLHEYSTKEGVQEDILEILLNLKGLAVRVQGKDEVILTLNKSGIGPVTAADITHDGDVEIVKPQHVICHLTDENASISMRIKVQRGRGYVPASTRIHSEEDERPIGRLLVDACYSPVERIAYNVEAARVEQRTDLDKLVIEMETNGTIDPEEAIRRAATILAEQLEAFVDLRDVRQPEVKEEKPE

| Molecule | Kd [1] [nM] | binding result [2] |
| --- | --- | --- |
| CRIPT [rpoA-CRIPT] | 800 |  |
| cI-PDZ (DBD-target fusion) (other, Expressed in E. coli BL21(DE3) Star or Acella cells from plasmid VN419) MSTKKKPLTQEQLEDARRLKAIYEKKKNELGLSQESVADKMGMGQSGVGALFNGINALNAYNAALLAKILKVSVEEFSPSIAREIYEMYEAVSMQPSLRSEYEYPVFSHVQAGMFSPELRTFTKGDAERWVSTTKKASDSAFWLEVEGNSMTAPTGSKPSFPDGMLILVDPEQAVEPGDFCIARLGGDEFTFKKLIRDSGQVFLQPLNPQYPMIPCNESCSVVGKVIASQWPEETFGAAALGEEDIPREPRRIVIHRGSTGLGFNIVGGEDGEGIFISFILAGGPADLSGELRKGDQILSVNGVDLRNASHEQAAIALKNAGQTVTIIAQYKPEEYSRFEAK |  | no binding |
